# Results taken from paper PMC10000267, “ALA‐A2 Is a Novel Anticancer Peptide Inspired by Alpha‐Lactalbumin: A Discovery from a Computational Peptide Library, In Silico Anticancer Peptide Screening and In Vitro Experimental Validation” (Global Challenges, 2023).
# Residues, ends and D or L forms follow the SMILES beside them.
# Tested on: A549 lung adenocarcinoma cells
# Conditions: A549, 200 µM, 24 h; SWATH; n = 9 per group
# Experimental: In brief, A549 lung adenocarcinoma cells were seeded at a density of 1 × 10^5 cells/well in a 24‐well plate. After overnight incubation, the media were changed with fresh media with or without 200 µM ALA‐A2 and incubated at 37 °C in 5%CO2 for 24 h. The cells were washed twice with PBS before lysis with Laemmli lysis buffer (62.5 mM Tris‐HCl, pH 6.8, 10% v/v glycerol, 2% w/v SDS, and 2.5% v/v beta‐mercaptoethanol). Total protein was quantified using the Bradford protein assay (Bio‐Rad, Hercules, USA). 10 µg of protein was resolved by 12% SDS–PAGE before staining with Coomassie brilliant blue G‐250, and the gel was cut into small pieces for in‐gel tryptic digestion. An amount of peptide sample corresponding to 2.5 µg of total protein was resolved in an Eksigent nanoLC ultra nanoflow high performance liquid chromatography in tandem with a TripleTOF 6600+ mass spectrometer (ABSciex, Toronto, Canada) set for information‐dependent acquisition (IDA) and DIA modes. The peptides were loaded onto a C18 column trap (Nano Trap RP‐1, 3 µm 120 Å, 10 mm × 0.075 mm; Phenomenex, CA, USA) at a flow rate of 3 µL min^−1 of 0.1% formic acid in water for 10 min to desalt and concentrate the sample, which was then resolved by HPLC using a stationary phase of a C18 analytical column (bioZen Peptide Polar C18 nanocolumn, 75 µm × 15 cm, particle size 3 µm, 120 Å; Phenomenex) with mobile phase gradients at a flow rate of 300 nL min^−1 of 3–30% acetonitrile/0.1% formic acid for 60 min, 30–40% acetonitrile/0.1% formic acid for 10 min, 40–80% acetonitrile/0.1% formic acid for 2 min, 80% acetonitrile/0.1% formic acid for 6 min, 80–3% acetonitrile/0.1% formic acid for 2 min, and 3% acetonitrile/0.1% formic acid for 25 min. The eluate was ionized and sprayed into the mass spectrometer using OptiFlow Turbo V Source (Sciex). Ion source gas 1, ion source gas 2, and curtain gas were set at 19, 0, and 25 vendor arbitrary units, respectively. The interface heater temperature was 150 °C and ion spray voltage was 3.3 kV.
# Each cycle performed one time of flight (TOF) scan (250 ms accumulation time, 350–1250 m/z window with a charge state of +2) followed by IDA of the 100 most intense ions, while the minimum MS signal was set to 150 counts. The MS/MS scan was operated in high sensitivity mode with 50 ms accumulation time and 50 ppm mass tolerance. Former MS/MS candidate ions were excluded for a period of 12 s after their first occurrence to reduce the redundancy of identified peptides. DIA mode was performed in a range of 350–1500 m/z using a predefined mass window of 7‐m/z with an overlap of 1‐m/z for 157 transmissible windows. MS scan was set at 2044 cycles, where each cycle performed one TOF‐MS scan type (50 ms accumulation time across 100–1500 precursor mass range) acquired in every cycle for a total cycle time of 3.08 s. MS spectra of 100–1500 m/z were collected with an accumulation time of 96 ms per SWATH window width. Resolution for MS1 was 35 000 and SWATH‐MS2 scan was 30 000. Rolling collision energy mode with collision energy spread of 15 eV was applied. The IDA and DIA data (.wiff) were recorded by Analyst‐TF v.1.8 software (ABSciex).
# A total of 18 wiff files of IDA experiments (two groups; three biological replicates per group; three technical replicates per biological sample) were combined and searched using Protein Pilot v.5.0.2.0 software (ABSciex) against the Swiss‐Prot database (UniProtKB 2022_01) Homo sapiens (20385 proteins in database) with the searching parameters as follows; alkylation on cysteine by iodoacetamide, trypsin enzymatic digestion, one missed cleavage allowed, monoisotopic mass, and 1% false discovery rate.
compound,measurement,value
CC(C)C[C@H](NC(=O)[C@@H](N)CCCCN)C(=O)N[C@@H](Cc1c[nH]c2ccccc12)C(=O)N[C@@H](CS)C(=O)N[C@@H](CCCCN)C(=O)N[C@@H](CO)C(=O)N[C@@H](CO)C(=O)N[C@@H](CCC(N)=O)C(=O)N[C@H](C(=O)N1CCC[C@H]1C(=O)N[C@@H](CCC(N)=O)C(=O)N[C@@H](CO)C(=O)N[C@@H](CCCNC(=N)N)C(=O)O)C(C)C [ALA‐A2] (H-KLWCKSSQVPQSR-OH),"Fold‐change [treated/ untreated]: 40S ribosomal protein SA (RSSA, P08865)",0.25
same,"Fold‐change [treated/ untreated]: 60S ribosomal protein L6 (RL6, Q02878)",2.87
same,"Fold‐change [treated/ untreated]: Actin, cytoplasmic 2 (ACTG, P63261)",0.09
same,"Fold‐change [treated/ untreated]: Aldo‐keto reductase family 1 member B10 (AK1BA, O60218)",0.29
same,"Fold‐change [treated/ untreated]: Annexin A4 (ANXA4, P09525)",2.98
same,"Fold‐change [treated/ untreated]: Annexin A7 (ANXA7, P20073)",3.29
same,"Fold‐change [treated/ untreated]: Chloride intracellular channel protein 1 (CLIC1, O00299)",3.02
same,"Fold‐change [treated/ untreated]: Elongation factor 1‐alpha‐like 3 (EF1A3, Q5VTE0)",0.15
same,"Fold‐change [treated/ untreated]: Elongation factor 1‐gamma (EF1G, P26641)",0.31
same,"Fold‐change [treated/ untreated]: Endoplasmin (ENPL, P14625)",0.38
same,"Fold‐change [treated/ untreated]: Glyceraldehyde‐3‐phosphate dehydrogenase (G3P, P04406)",0.32
same,"Fold‐change [treated/ untreated]: Heat shock 70 kDa protein 8 (HSPA8, P11142)",0.25
same,"Fold‐change [treated/ untreated]: Heat shock protein HSP90 alpha (HSP90AA1, P07900)",0.26
same,"Fold‐change [treated/ untreated]: Heat shock protein HSP90 beta (HSP90AB1, P08238)",0.40
same,"Fold‐change [treated/ untreated]: Heterogeneous nuclear ribonucleoprotein A/B (ROAA, Q99729)",2.35
same,"Fold‐change [treated/ untreated]: Heterogeneous nuclear ribonucleoproteins A2/B1 (ROA2, P22626)",0.25
same,"Fold‐change [treated/ untreated]: Histone H1.3 (H13, P16402)",0.32
same,"Fold‐change [treated/ untreated]: Histone H2A type 2‐A (H2A2A, Q6FI13)",0.48
same,"Fold‐change [treated/ untreated]: Histone H4 (H4, P62805)",0.26
same,"Fold‐change [treated/ untreated]: Hsp70‐binding protein 1 (HPBP1, Q9NZL4)",0.48
same,"Fold‐change [treated/ untreated]: Importin‐5 (IPO5, O00410)",2.22
same,"Fold‐change [treated/ untreated]: Junction plakoglobin (PLAK, P14923)",2.05
same,"Fold‐change [treated/ untreated]: Keratin, type I cytoskeletal 18 (K1C18, P05783)",0.35
same,"Fold‐change [treated/ untreated]: Keratin, type I cytoskeletal 19 (K1C19, P08727)",0.34
same,"Fold‐change [treated/ untreated]: Leucine‐rich PPR motif‐containing protein (LPPRC, P42704)",2.06
same,"Fold‐change [treated/ untreated]: Neurofibromin (NF1, P21359)",0.07
same,"Fold‐change [treated/ untreated]: Peroxiredoxin‐1 (PRDX1, Q06830)",0.26
same,"Fold‐change [treated/ untreated]: Pyruvate kinase PKM (KPYM, P14618)",0.43
same,"Fold‐change [treated/ untreated]: RNA‐binding protein Raly (RALY, Q9UKM9)",3.57
same,"Fold‐change [treated/ untreated]: Serine/arginine‐rich splicing factor 3 (SRSF3, P84103)",0.33
same,"Fold‐change [treated/ untreated]: TAR DNA‐binding protein 43 (TADBP, Q13148)",4.07
same,"Fold‐change [treated/ untreated]: Threonine‐tRNA ligase 1 (SYTC, P26639)",2.61
same,"Fold‐change [treated/ untreated]: Transaldolase (TALDO, P37837)",0.43
same,"Fold‐change [treated/ untreated]: Transketolase (TKT, P29401)",0.35
same,"Fold‐change [treated/ untreated]: Tubulin beta chain (TBB5, P07437)",0.27
same,"Fold‐change [treated/ untreated]: T‐complex protein 1 subunit delta (TCPD, P50991)",2.39
same,"Fold‐change [treated/ untreated]: T‐complex protein 1 subunit gamma (TCPG, P49368)",0.46
same,"Fold‐change [treated/ untreated]: Ubiquitin‐60S ribosomal protein L40 (UBA52, P62987)",0.41
